What was measured:
[1] = molecular target: human PTPN2 (1-387) (Homo sapiens (Human), UniProt P17706); experiment: Human PTPN2 Biochemical Assay; conditions: DiFMUP substrate
Summary of the method: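 Human PTPN2 (1-387) preincubated 30 min at RT with compound (10-point 3-fold series) in Tris pH 7.4 buffer with 0.5 mM DTT, then DiFMUP substrate added for 1 h at RT. Fluorescence at ex 360/em 460 nm, normalised to no-enzyme and enzyme controls; EC50 from 4-parameter fit.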

[2] = molecular target: human PTPN1 (1-435) (Homo sapiens (Human), UniProt P18031); experiment: Human PTPN1 Biochemical Assay; conditions: DiFMUP substrate, read-out: PTP1B IC50
human PTPN1 (1-435), sequence (P18031 whole entry): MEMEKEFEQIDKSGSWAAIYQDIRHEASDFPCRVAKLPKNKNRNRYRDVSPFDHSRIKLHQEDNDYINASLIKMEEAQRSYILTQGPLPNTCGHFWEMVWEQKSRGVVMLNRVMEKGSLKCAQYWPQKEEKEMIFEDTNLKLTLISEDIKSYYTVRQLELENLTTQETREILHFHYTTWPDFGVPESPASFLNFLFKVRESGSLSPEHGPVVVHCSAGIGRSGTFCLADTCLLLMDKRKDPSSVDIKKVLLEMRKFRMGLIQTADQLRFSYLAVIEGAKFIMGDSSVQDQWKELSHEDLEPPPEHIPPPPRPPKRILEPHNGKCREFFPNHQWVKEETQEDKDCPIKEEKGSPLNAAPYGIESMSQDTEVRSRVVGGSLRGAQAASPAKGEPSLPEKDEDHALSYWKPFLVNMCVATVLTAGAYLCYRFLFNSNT
Summary of the method: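 Read-out is DiFMUP hydrolysis fluorescence (360 nm excitation, 460 nm emission) after 1 h at room temperature, following 30 min enzyme–compound preincubation.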

human PTPN2 (1-387), sequence (P17706 other isoform, or with tags, fused parts or gaps): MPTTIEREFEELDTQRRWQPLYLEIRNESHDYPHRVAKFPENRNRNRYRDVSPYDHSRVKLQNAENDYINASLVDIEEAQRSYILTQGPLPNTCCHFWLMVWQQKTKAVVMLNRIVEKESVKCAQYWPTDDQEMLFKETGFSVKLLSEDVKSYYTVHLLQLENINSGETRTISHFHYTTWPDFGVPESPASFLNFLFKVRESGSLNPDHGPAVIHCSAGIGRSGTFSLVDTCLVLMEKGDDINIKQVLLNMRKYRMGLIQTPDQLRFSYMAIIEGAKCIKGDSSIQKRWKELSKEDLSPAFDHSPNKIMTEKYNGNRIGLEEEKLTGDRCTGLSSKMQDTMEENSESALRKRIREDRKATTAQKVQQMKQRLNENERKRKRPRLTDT

Row | IC50 [1] [nM] | IC50 [2] [nM] | Structure (SMILES)
1 | 648 | 1380 | C[C@@H](NC(=O)c1ccc2sc(C(F)(F)P(=O)(O)O)c(C#N)c2c1)c1cccnn1 [Compound 186]
2 | 9.06 | 10.9 | O=C(NCc1cc[nH]n1)c1cc(OCCCC(F)(F)F)c2sc(C(F)(F)P(=O)(O)O)c(Br)c2c1 [Compound 201]
3 | 3650 | 2320 | O=C(NCc1cc[nH]n1)c1ccc2sc(C(F)(F)P(=O)(O)O)c(Br)c2c1 [Compound 202]
4 | 16.4 | 17.2 | CNC(=O)c1cc(OCCCC(F)(F)F)c2sc(C(F)(F)P(=O)(O)O)c(Br)c2c1 [Compound 203]
5 | 1260 | 1430 | CN(C)C(=O)c1cc(OCCCC(F)(F)F)c2sc(C(F)(F)P(=O)(O)O)c(Br)c2c1 [Compound 204]
6 | 6.95 | 7.5 | O=C(Nc1ccccc1)c1cc(OCCCC(F)(F)F)c2sc(C(F)(F)P(=O)(O)O)c(Br)c2c1 [Compound 205]
7 | 8.04 | 9 | O=C(NC1CC(F)(F)C1)c1cc(OCCCC(F)(F)F)c2sc(C(F)(F)P(=O)(O)O)c(Br)c2c1 [Compound 206]
8 | 9.79 | 11.6 | O=C(NC1CC1(F)F)c1cc(OCCCC(F)(F)F)c2sc(C(F)(F)P(=O)(O)O)c(Br)c2c1 (stereo not shown) [Compound 207]
9 | 6.96 | 7.5 | C[C@@H](NC(=O)c1cc(OCCCC(F)(F)F)c2sc(C(F)(F)P(=O)(O)O)c(Br)c2c1)c1cccnn1 [Compound 208]
10 | 4.63 | 6.5 | O=C(NCc1c[nH]nn1)c1cc(OCCCC(F)(F)F)c2sc(C(F)(F)P(=O)(O)O)c(Br)c2c1 [Compound 209]
11 | 13.7 | 132 | C=C(C)C#Cc1cc(C(N)=O)cc2c(Br)c(C(F)(F)P(=O)(O)O)sc12 [Compound 210]
12 | 511 | 696 | CN(C)CCNC(=O)c1cc(OCCCC(F)(F)F)c2sc(C(F)(F)P(=O)(O)O)c(Br)c2c1 [Compound 211]
13 | 9660 | 8150 | O=C(Nc1ccc2sc(C(F)(F)P(=O)(O)O)c(Br)c2c1)c1ccc(F)cc1 [Compound 212, ((3-bromo-5-(4-fluorobenzamido)benzo[b]thiophen-2-yl)difluoromethyl)phosphonic acid]
14 | 6360 | 5290 | O=C(Nc1ccc2sc(C(F)(F)P(=O)(O)O)c(Br)c2c1)C(F)(F)F [Compound 213]
15 | 4320 | 3480 | O=C(Cc1cccnc1)Nc1ccc2sc(C(F)(F)P(=O)(O)O)c(Br)c2c1 [Compound 214]
16 | 8430 | 7550 | O=C(Nc1ccccc1)c1ccc2sc(C(F)(F)P(=O)(O)O)c(Cl)c2c1 [Compound 215, ((3-chloro-5-(phenylcarbamoyl)benzo[b]thiophen-2-yl)difluoromethyl)phosphonic acid]
17 | 5760 | 6410 | O=C(Nc1ccccc1)c1ccc2sc(C(F)(F)P(=O)(O)O)c(C(F)F)c2c1 [Compound 216, ((3-(difluoromethyl)-5-(phenylcarbamoyl)benzo[b]thiophen-2-yl)difluoromethyl)phosphonic acid]
18 | 7060 | 1840 | Cc1[nH]cnc1CNC(=O)c1ccc2sc(C(F)(F)P(=O)(O)O)c(Br)c2c1 [Compound 217, ((3-bromo-5-(((5-methyl-1H-imidazol-4-yl)methyl)carbamoyl)benzo[b]thiophen-2-yl)difluoromethyl)phosphonic acid]
19 | 2050 | 2900 | O=C(NCc1c[nH]cn1)c1ccc2sc(C(F)(F)P(=O)(O)O)c(Br)c2c1 [Compound 218]
20 | 3740 | 4660 | O=C(Nc1ccccc1)Nc1ccc2sc(C(F)(F)P(=O)(O)O)c(Br)c2c1 [Compound 219, ((3-bromo-5-(3-phenylureido)benzo[b]thiophen-2-yl)difluoromethyl)phosphonic acid]
21 | 6060 | 7140 | COc1cccc(NCc2ccc3sc(C(F)(F)P(=O)(O)O)c(Br)c3c2)c1 [Compound 220, ((3-bromo-5-(((3-methoxyphenyl)amino)methyl)benzo[b]thiophen-2-yl)difluoromethyl)phosphonic acid]
22 | 6680 | 3460 | O=P(O)(O)C(F)(F)c1sc2ccc(OCCc3ccccc3)cc2c1Br [Compound 221, ((3-bromo-5-phenethoxybenzo[b]thiophen-2-yl)difluoromethyl)phosphonic acid]
23 | 3210 | 2440 | O=P(O)(O)C(F)(F)c1sc2c(NCCC3CCCCC3)cccc2c1Br [Compound 223, ((3-bromo-7-((2-cyclohexylethyl)amino)benzo[b]thiophen-2-yl)difluoromethyl)phosphonic acid]
24 | 1610 | 2390 | CC(C)(O)CCCNc1cccc2c(Br)c(C(F)(F)P(=O)(O)O)sc12 [Compound 224]
25 | 2690 | 2030 | O=P(O)(O)C(F)(F)c1sc2c(NCCCC(F)(F)F)cccc2c1Br [Compound 226, ((3-bromo-7-((4,4,4-trifluorobutyl)amino)benzo[b]thiophen-2-yl)difluoromethyl)phosphonic acid]

More lines, now with the values behind:

Row | Structure (SMILES) | IC50 [1] [nM] | IC50 [2] [nM]
26 | Cn1cnc(CNC(=O)c2ccc3sc(C(F)(F)P(=O)(O)O)c(Br)c3c2)c1 [Compound 178] | 5820 | 10800
27 | O=C(NCc1ccon1)c1ccc2sc(C(F)(F)P(=O)(O)O)c(Br)c2c1 [Compound 179] | 2570 | 2840
28 | O=C(NC1(c2cccnc2)CC1)c1ccc2sc(C(F)(F)P(=O)(O)O)c(Br)c2c1 [Compound 180] | 6630 | 13700
29 | Cn1cnc(CNC(=O)c2ccc3sc(C(F)(F)P(=O)(O)O)c(Br)c3c2)n1 [Compound 181] | 4100 | 2420
30 | C[C@@H](NC(=O)c1ccc2sc(C(F)(F)P(=O)(O)O)c(Br)c2c1)c1ncc(F)cn1 [Compound 182] | 5080 | 2650
31 | Cc1cnc(F)c(CNC(=O)c2ccc3sc(C(F)(F)P(=O)(O)O)c(Br)c3c2)c1 [Compound 183] | 2000 | 1410
32 | O=C(NCc1ncc(F)cn1)c1ccc2sc(C(F)(F)P(=O)(O)O)c(Br)c2c1 [Compound 184] | 7340 | 4970
33 | C[C@H](NC(=O)c1ccc2sc(C(F)(F)P(=O)(O)O)c(Br)c2c1)c1ccccn1 [Compound 185] | 5200 | 3390
34 | O=C(NCc1n[nH]c(=O)[nH]1)c1ccc2sc(C(F)(F)P(=O)(O)O)c(Br)c2c1 [Compound 187] | 1860 | 961
35 | O=C(NCc1cnsn1)c1ccc2sc(C(F)(F)P(=O)(O)O)c(Br)c2c1 [Compound 188] | 1410 | 714
36 | O=C(NCc1cc(C2CC2)on1)c1ccc2sc(C(F)(F)P(=O)(O)O)c(Br)c2c1 [Compound 189] | 1320 | 990
37 | Cc1cc(CNC(=O)c2ccc3sc(C(F)(F)P(=O)(O)O)c(Br)c3c2)no1 [Compound 190] | 1830 | 1020
38 | CCC(NC(=O)c1ccc2sc(C(F)(F)P(=O)(O)O)c(Br)c2c1)c1ncnn1C (stereo not shown) [Compound 191] | 2820 | 3600
39 | O=C(NC(CO)c1ccccn1)c1ccc2sc(C(F)(F)P(=O)(O)O)c(Br)c2c1 (stereo not shown) [Compound 192] | 7980 | 4590
40 | Cn1nncc1CNC(=O)c1ccc2sc(C(F)(F)P(=O)(O)O)c(Br)c2c1 [Compound 193] | 5840 | 3140
41 | CC(NC(=O)c1ccc2sc(C(F)(F)P(=O)(O)O)c(Br)c2c1)c1ccon1 (stereo not shown) [Compound 194] | 3200 | 1740
42 | CCc1nc(CNC(=O)c2ccc3sc(C(F)(F)P(=O)(O)O)c(Br)c3c2)no1 [Compound 195] | 5540 | 2740
43 | CCc1noc(CNC(=O)c2ccc3sc(C(F)(F)P(=O)(O)O)c(Br)c3c2)n1 [Compound 196] | 3540 | 2100
44 | CCC(NC(=O)c1ccc2sc(C(F)(F)P(=O)(O)O)c(Br)c2c1)c1ccccn1 (stereo not shown) [Compound 197] | 9460 | 7210
45 | Cc1c[nH]c(CNC(=O)c2ccc3sc(C(F)(F)P(=O)(O)O)c(Br)c3c2)n1 [Compound 198] | 5460 | 5710
46 | C[C@@H](NC(=O)c1ccc2sc(C(F)(F)P(=O)(O)O)c(Br)c2c1)c1cccnc1 [Compound 199] | 1710 | 1190
47 | C[C@H](NC(=O)c1ccc2sc(C(F)(F)P(=O)(O)O)c(Br)c2c1)c1cccnc1 [Compound 200] | 1470 | 976
